Assay results as given in patent publication US7271239B2, “D-isomers of antimicrobial peptide” (The Research Foundation of State University of New York, priority 2004, dated 2007).
Converted amounts (≈) assume the structure as drawn. Like-named read-outs stand apart in the source and are kept apart here. Where a SMILES comes first, the peptide text is derived from it.

What was measured:
P. gingivalis = assay: microbe, parasite or virus in culture; format: cell-based, Porphyromonas gingivalis
Text: (§1) The bacteria used in this study included Streptococcus mutans ATCC10449, Streptococcus mutans AU 159, Streptococcus mutans GS-5, Streptococcus mutans GS-5 mutant (^gtf BCD), Streptococcus gordonii Challis, Porphyromonas gingivalis W50, Porphyromonas gingivalis 381, A. actinomycetemcomitans NCTC 9710, Pseudomonas aeruginosa ATCC 17648, and Escherichia coli HB101. One quarter strength (25%) of brain heart infusion broth (BHI, DIFCO Laboratories, Detroit, Mich.) was used for the growth of S. mutans, S. gordonii, A. actinomycetemcomitans, Ps. aeruginosa, and E. coli. For growth of P. gingivalis, tryptic soy broth-yeast extract medium (TSBY, DIFCO Laboratories, Detroit, Mich.) supplemented with cysteine hydrochloride (0.05%), menadione (0.02 μg/ml), hemin (5 μg/ml), and potassium nitrate (0.02%) was used. All bacteria were cultured at 37° C.; Ps. aeruginosa and E. coli were grown aerobically, and the other bacteria, anaerobically. To prepare bacterial cell suspension for antibacterial activity assays, each overnight culture was harvested by centrifuge (3783 g, 10 min), washed once with 10 mM sodium phosphate-buffered saline (PBS, pH 7.2), resuspended in PBS and adjusted to a concentration of 1×10^6 cells/mL.
(§2) MICs of the peptides were determined by broth microdilution method as previously described (5). Briefly, two-fold serial dilutions of each peptide were prepared with 25% BHI medium at a volume of 200 μl per well in 96-well flat-bottom microtiter plates (Costar, Cambridge, Mass.). The final concentration of the peptides ranged from 0.78 to 100 μM, and chlorhexidine (CHX), used as a positive control, from 20 to 0.16 μM (10 to 0.078 μg/mL). The microtiter plate was inoculated with bacterial cell suspension with final concentration of 5×10^6 CFU/mL for P. gingivalis and 5×10^5 CFU/mL for the other bacterial species. After incubation at 37° C. for 48 h, the absorbance was measured at 595 nm by using a microplate reader (Model 3550, Bio-Rad, Japan) to assess the cell growth. […] The MIC value represents the median of at least three independent experiments. The minimal bactericidal concentration (MBC) was determined as follows. Aliquot (100 μl) of cell suspension was taken from two wells above MIC, centrifuged, and washed three times with PBS. Then each cell suspension was plated on TSBY agar plate, and bacterial cells were enumerated after incubation at 37° C. for 48 h. The MBC was defined as the lowest concentration of the peptide at which more than 99.9% of cells were killed compared to non-treated control.

S. mutans = assay: microbe, parasite or virus in culture; settings: median of four strains
Text: as §1, §2

S. mutans GS-5 = assay: Time-kill assay; format: cell-based, Streptococcus mutans; settings: after 4 h incubation, each agent at its MIC
Method: FIG. 10. Time-Killing curves for S. mutans. […] Control (▪), MUC7 12-mer-L (Δ), MUC7 12-mer-D (□), MUC7 20-mer (▴), Hsn5 12-mer (×), magainin II (●), chlorhexidine (◯).
For the peptides MUC7 12-mer-L, MUC7 12-mer-D, and MUC7 20-mer, time-kill kinetic studies against S. mutans were performed by the broth macrodilution method. S. mutans GS-5 (1×10^6 CFU/ml) and antibacterial agens (find concentrations of 12.5 μM for each peptide, and 2 μM for CHX; their MICs) were incubated in 25% BHI at 37° C. At the time of 0, 1, 2, 4, 8, and 24 h, samples were taken and viable counts determined as follows: The samples were serially diluted (10^−1 to 10^−4) in sterile 10 mM PBS (pH 7.2) and 50 μl aliquots were plated onto TSBY agar. The plates were incubated anaerobically at 37° C. for 48 h, followed by enumerating the CFU. Killing curves were constructed by plotting the log10 CFU per milliliter versus time over 24 h. All assays were done in duplicate on at least two occasions.

E. coli HB101 = assay: microbe, parasite or virus in culture; format: cell-based, Escherichia coli
Text: as §1, §2

[1] = system: A. actinomycetemcomitans NCTC 9710; assay: microbe, parasite or virus in culture; format: cell-based
Text: as §1, §2

[2] = system: Ps. aeruginosa ATCC 17648; assay: microbe, parasite or virus in culture; format: cell-based, Pseudomonas aeruginosa; settings: ATCC 17648
Text: as §1, §2

S. gordonii Challis = assay: microbe, parasite or virus in culture; format: cell-based, Streptococcus gordonii
Text: as §1, §2

[3] = system: S. mutans GS-5 1-day biofilm; format: cell-based, Streptococcus mutans
Method: FIG. 12. Effect of peptides on 1-day biofilm of S. mutans. One-day mature biofilm was prepared as described above. BHI medium supplemented with 1% sucrose (BHIS) with peptides, prepared in another microtiter plate, was then transferred to the biofilm plate. After further incubation at 37° C. for 24 h, the biofilm was fixed, stained, and quantified as describe above. Data represents mean and SD of two independent tests performed in duplicated. Empty bar: growth, solid bar: biofilm.
To examine the effects of the peptides on 1-day mature biofilm, S. mutans GS-5 was inoculated into the wells of another polystyrene microtiter plate containing BHIS at a volume of 200 μl per well. After incubation at 37° C. for 24 h, the culture supernatants from each well were decanted and planktonic cells were removed by washing with PBS. BHIS containing 0.78 to 100 μM peptides, prepared in another microtiter plate, was then transferred to the 1-day biofilm plate, and further incubated at 37° C. for one day. The biofilm was fixed, stained, and quantified as describe above.

S. mutans GS-5 biofilm = format: cell-based, Streptococcus mutans
Method: FIG. 11. Effect of peptides on the biofilm formation of S. mutans. The bacterial cells (5×10^5 cfu ml^−1) were inoculated in 96-well microtiter plate containing 25% BHIS medium with different concentration of each agent. Culture without agent was used as no treatment control. After incubation at 37° C. for 24 h, absorbance at 595 nm was recorded to assess the cell growth. Biofilm assay was performed by discarding the supernatants, washing with PBS, fixing with methanol, and staining with CV. The absorbance at 570 nm was recorded to assess the amount of biofilm. The activity was expressed as % of control. Data represents mean and SD of two independent tests with duplicates for each. Empty bar: growth, solid bar: biofilm.
The effect of the peptides on S. mutans in biofilm formation was examined by the microdilution method. This method is similar to the MIC assay for planktonic cells. Two-fold serial dilutions of each peptide were prepared in wells of polystyrene microtiter plates (Microtest tissue culture plate, 96 well, Falcon, Becton Dickinson and Company, N.J.) containing 25% BHI medium supplemented with 1% sucrose (BHIS) at a volume of 200 μl per well. The final concentration of the peptide ranged from 0.78 to 100 μM for each peptide. Chlorhexidine (CHX, 0.078 to 10 μg/mL) was used as the positive control, the medium without drug as the non-treated control, and the medium alone as the blank control. The cells suspension of S. mutans GS-5 was prepared as describe in MIC assay and 20 μl aliquot (final concentration of cells 5×10^5 CFU/mL) was inoculated to the wells of polystyrene microtiter plates. After incubation at 37° C. for 20 h, the culture supernatants from each well were decanted and planktonic cells were removed by washing with PBS, pH 7.2. The biofilm was fixed with methanol for 15 min and then air dried at room temperature. The biofilm was then stained with 0.1% (wt/vol) crystal violet (Sigma) for 5 min. and rinsed thoroughly with water until the control wells appeared colorless. Biofilm formation was quantified by the addition of 200 μl of 95% ethanol to each crystal violet-stained well. The plate was rocked at room temperature for 30 min and the absorbance at 595 nm (A595 nm) was determined with a microplate reader (BioRad Model 3550 Microplate Reader). Percentage of inhibition was calculated with the equation: (1−A595 nm of the test/A595nm of non-treated control)×100.

CC[C@H](C)[C@H](NC(=O)[C@H](Cc1ccccc1)NC(=O)[C@@H]1CCCN1C(=O)[C@H](CCCCN)NC(=O)[C@H](CCC(N)=O)NC(=O)[C@H](Cc1c[nH]cn1)NC(=O)[C@H](C)NC(=O)[C@@H](N)CC(C)C)C(=O)N[C@@H](CCCNC(=N)N)C(=O)N[C@@H](CCCCN)C(=O)N[C@@H](CO)C(=O)N[C@@H](Cc1ccc(O)cc1)C(=O)N[C@@H](CCCCN)C(=O)N[C@@H](CS)C(=O)N[C@@H](CC(C)C)C(=O)N[C@@H](Cc1c[nH]cn1)C(=O)N[C@@H](CCCCN)C(=O)N[C@@H](CCCNC(=N)N)C(=O)N[C@@H](CS)C(=O)N[C@@H](CCCNC(=N)N)C(=O)O [MUC7 20-mer] (H-LAHQKPFIRKSYKCLHKRCR-OH; N-terminus and C-terminus assumed)
MIC (μM) (P. gingivalis): >100 µM | MIC (μg/ml) (P. gingivalis): >251 µg/mL | MBC (μM) (S. mutans): 12.5 µM (≈ 31.4 µg/mL) | MBC (μg/ml) (S. mutans): 31.4 µg/mL (≈ 12.5 µM) | reduction of the viable counts of S. mutans (S. mutans GS-5): 2 log10 | MBC (μM) (E. coli HB101): 100.0 µM (≈ 251 µg/mL) | MIC (μM) (E. coli HB101): 100.0 µM (≈ 251 µg/mL) | MBC (μg/ml) [1]: 251.3 µg/mL (≈ 100 µM) | MIC (μg/ml) [1]: 251.3 µg/mL (≈ 100 µM) | MBC (μM) ([1]; NCTC 9710): 100.0 µM (≈ 251 µg/mL) | MIC (μM) ([1]; NCTC 9710): 100.0 µM (≈ 251 µg/mL) | MBC (μM) [2]: >100 µM | MBC (μg/ml) [2]: >251 µg/mL | MIC (μM) [2]: >100 µM | MIC (μg/ml) [2]: >251 µg/mL | MBC (μM) (S. gordonii Challis): 25.0 µM (≈ 62.8 µg/mL) | MBC (μg/ml) (S. gordonii Challis): 62.8 µg/mL (≈ 25 µM) | MIC (μM) (S. gordonii Challis): 12.5 µM (≈ 31.4 µg/mL) | MIC (μg/ml) (S. gordonii Challis): 31.4 µg/mL (≈ 12.5 µM) | MBEC50 (μg/ml) [3]: 62 µg/mL | MBEC50 (μM) ([3]; GS-5 1-day biofilm, 24 h): 25 µM | eradication of 1-day developed biofilm ([3]; at or more than MBEC50): reduction of biofilm was observed | MBIC50 (S. mutans GS-5 biofilm): 15.5 µg/mL | MBIC50 (S. mutans GS-5 biofilm; GS-5 biofilm, 24 h): 6.25 µM
